The values below come from publication PMC8799869, “D-enantiomers of CATH-2 enhance the response of macrophages against Streptococcus suis serotype 2” (Journal of Advanced Research, 2021).

By MBC is commonly meant the smallest concentration meeting the test's criterion for killing. Low readings indicate more potent killing, high ones less potent killing.

The subject of test [1] is S. suis serotype 2 strain D282. It is filed as cell-based, Streptococcus suis. Particulars: 3 h. The procedure: (§1) S. suis serotype 2 strains P1/7, D282, S735, and OV625 were grown into mid-logarithmic phase for 3–4 h at 37 °C in THB, after which bacteria were centrifuged at 1200×g for 10 min at 4 °C and resuspended in fresh THB. Bacterial concentration was determined by measuring optical density at 620 nm with an OD of 1.0 being equivalent to 1x10^8 colony forming units (CFU)/mL. 1x10^6 CFU/mL S. suis was mixed with different concentrations of D-CATH-2 and derivatives (0.63 – 40 µM) and incubated for 3 h at 37 °C. Ten-fold dilutions were prepared and spread in Tryptic Soy agar (TSA) plates containing 5% (v/v) defibrinated sheep blood (Oxoid) and colonies were allowed to grow for 48 h. Minimal Bactericidal Concentration (MBC) was defined as ≤100 CFU/mL (2 log CFU/mL), the detection limit of the assay.

The subject of test [2] is S. suis serotype 2 strain OV625. It is filed as cell-based, Streptococcus suis. Particulars: 3 h. The procedure: as §1
Test [3] concerns S. suis serotype 2 strain P1/7. It is filed as cell-based, Streptococcus suis. The following applies: 3 h. The procedure:
as §1

Test [4] concerns S. suis serotype 2 strain S735. The format is cell-based, Streptococcus suis. Particulars: 3 h. The procedure: as §1
Test [5] in a line: Isothermal titration calorimetry (ITC), peptide binding to LTA. Particulars: 200 µM peptide titrated into 37.2 µM LTA-SA, MilliQ:dPBS 3:1, 37 °C, three experiments averaged, independent model, read-out: Kd, dissociation coefficient. Set-up: species or system S. aureus. The procedure: The interaction between the D-CATH-2 peptides and LTA-SA was tested using isothermal titration calorimetry (ITC). All ITC experiments were performed on a Low Volume NanoITC (TA instruments - Waters LLC, New Castle, USA). Peptide solution or 37.2 µM LTA-SA was prepared in MilliQ:dPBS (Gibco) in a 3:1 ratio. The chamber was filled with 164 µL LTA-SA and the peptide was loaded in the 50 µL syringe. Every 300 s, 1.99 µL peptide was titrated into the chamber at 37 °C. Data was analyzed using the Nano Analyze software (TA instruments-Waters LLC). The data of three experiments was averaged and an independent model was used to determine the peptide-LTA interaction.
On the technique in general: Isothermal titration calorimetry measures the heat released or taken up as one component is titrated into another.

Another test relates to murine BMDMs. The test can be described thus: BMDM differentiation after peptide exposure at day 1, flow cytometry. The following applies: 1.25 µM peptide at day 1 of culture for 24 h. The format is cell-based, mouse. The procedure: Murine bone marrow cells, isolated from the femur and tibia of both hindlegs, were stored in fetal calf serum (FCS) (Corning, NY, USA) containing 10% DMSO (Sigma-Aldrich, MO, USA) in liquid nitrogen. Cells were grown at a concentration of 5x10^5 cells/mL in RPMI-1640 without phenol red (Thermo Fisher Scientific, MA, USA) supplemented with 10% FCS and 1% penicillin/streptomycin (Thermo Fisher Scientific). Bone marrow-derived macrophages (BMDM) and bone marrow-derived dendritic cells (BMDC) were cultured by adding 20 ng/mL murine recombinant M−CSF or GM-CSF (PeproTech, NJ, USA) respectively. Where indicated, cells were supplemented with 1.25 µM peptide at day 1, which was replaced by fresh medium at day 2. The medium of all cells was replaced by fresh medium without antibiotics at day 3. At day 6 cells were stimulated with 1 µg/mL LTA from S. aureus (LTA-SA) (Invivogen, CA, USA) or with the different S. suis strains at a multiplicity of infection (MOI) of 0.2. Medium containing S. suis was removed after 2 h and replaced by medium containing 200 µg/mL gentamycin (Sigma) and left for an additional 22 h. After 24 h, medium was collected and stored at −20 °C for cytokine measurements. […] Cells were stained with antibodies (Table 1) for 20 min, washed and measured using aBD FACSCanto-II (BD Biosciences, NJ, USA) and analyzed with FlowJo software (Ashland, OR, USA).

The test system of a further test is S. suis P1/7. The test can be described thus: In vivo prophylactic S. suis P1/7 infection model. Also on record: species or system mouse. The procedure: Upon arrival, mice were allowed to acclimatize for at least 7 days before the start of the experiment. The experiment was performed as depicted in Fig. 5A. The experiment was repeated twice to obtain in total 4 mice in the control groups and 12 mice in the infection groups. At day 1, mice were subcutaneously injected in the neck region with 1 mg/kg D-C(1–21) in PBS/cholesterol or with PBS/cholesterol alone. Cholesterol was added 5% v/v, 2 mg/ml in ethanol. The peptide and control groups were blinded to avoid any influence by the researchers. After 24 h (group 1) or after 7 days (group 2), mice were intraperitoneally infected with 10^7 CFU S. suis P1/7 in THB or with THB alone as control. 24 h after infection, a few drops of blood were collected via cheek puncture for bacterial count. During the infection phase of the experiment, mice were checked every 12 h in the acute phase of disease (first 48 h) and thereafter daily until the end of the study. A cumulative clinical score was given to the mice as measure of disease using several parameters as depicted in Table 4, according to Seitz et al.. When a mouse obtained a clinical score of 2 for a minimum of 3 out of 8 scoring points two days in a row, or in case of severe weight loss (>20%), the mouse was euthanized for animal welfare reasons (humane end point (HEP)) and the organs were collected for bacterial counts as described hereafter. Seven days post infection all mice were sacrificed for further analysis. Mice were anesthetized using isoflurane and 1 mL blood was drawn via heart puncture, followed by cervical dislocation. The peritoneum was flushed with 5 mL PBS/0.5 mM EDTA and diluted in 10 mL ice cold PBS/0.5% FCS. Spleen, lungs, liver, lymph nodes (axillary, inguinal, and mesenteric), brain, kidney and bone marrow were collected and stored in ice cold PBS. All organs, except the bone marrow and lymph nodes were weighed using a Sartorius microbalance. The peritoneal lavage (PTL) samples were counted using the Countess II Automated Cell Counter (Invitrogen, CA, USA). The lungs, liver, brain and kidney were meshed through a 40 µm filter (BD Biosciences) with 5 mL PBS to obtain single cell suspensions. Spleen and lymph nodes were digested with digestion buffer (1.5 WU/mL liberase TL grade, 100 Units/ml recombinant DNAse I, both Roche) for 30 min at 37 °C and meshed through a 40 µm filter using 5 mL PBS/0.5 mM EDTA. The red blood cells of the blood and spleen were lysed using an isotonic ammonium chloride buffer (155 mM NH4Cl, 10 mM KHCO3, 0.1 mM EDTA) for 5–10 min on ice, washed 1x with PBS and were resuspended in FACS buffer (PBS/0.5% BSA). Bone marrow samples were flushed out the femur and tibia of both legs with 5 mL PBS and filtered through a 40 µm filter. A sample of the blood, bone marrow, spleen, peritoneal lavage and lymph nodes was taken and stained for 30 min with different antibody panels (Table 1) and measured using the BD FACS Canto-II and analyzed with FlowJo V8. Of the lungs, liver, brain, kidney, spleen and peritoneal lavage samples, a 10-fold serial dilution was prepared and the samples were plated on TSA plates containing 5% (v/v) defibrinated sheep blood. The colonies were allowed to grow for 48 h at 37 °C. The number of colonies were counted, with ≤ 100 CFU/mL (2 log CFU/mL) as detection limit of the assay and calculated as CFU/mg organ.

Another test concerns E. coli. Particulars: in ovo administration three days before hatch; cited from earlier work. An excerpt: In this study injection of D-C(1–21) reduced disease severity and increased the survival rate, although the differ ...
For test [6] the following is noted: previously shown; read-out: dissociation coefficient to LPS; cited from earlier work. The procedure:
Inhibition of LPS-induced, and to a lesser extent LTA-induced activation, is a widely studied immunomodulatory aspect of cathelicidins. […] The dissociation coefficient to LTA is with 2–10 µM much higher than previously shown for L-CATH-2 to LPS with a dissociation coefficient of 0.08 µM, [32] indicating a stronger binding to LPS than to LTA. However, since D-CATH-2 was highly efficient at inhibiting LTA-induced activation, it might also be that the inh ...

Values after ≈ are worked out from the molar mass of the structure shown. Like-named read-outs stand apart in the source and are kept apart here. Where a SMILES comes first, the peptide text is derived from it. Where no end group is shown, it is not given here. [ ]: non-standard residue; d: D form.

On to `CC[C@@H](C)[C@@H](NC(=O)[C@@H](CCCCN)NC(=O)[C@@H](CCCNC(=N)N)NC(=O)[C@@H](CC(C)C)NC(=O)[C@@H](Cc1ccccc1)NC(=O)[C@@H](CCCNC(=N)N)NC(=O)CNC(=O)[C@@H](Cc1ccccc1)NC(=O)[C@H](N)CCCNC(=N)N)C(=O)N[C@H](CCCNC(=N)N)C(=O)N[C@H](CCCNC(=N)N)C(=O)N[C@H](Cc1ccccc1)C(=O)N[C@H](CCCNC(=N)N)C(=O)N1CCC[C@@H]1C(=O)N[C@H](CCCCN)C(=O)N[C@@H](C(=O)N[C@@H](C(=O)N[C@@H](C(=O)N[C@@H](C(=O)N[C@@H](C(=O)N[C@H](CCC(N)=O)C(N)=O)[C@H](C)CC)[C@H](C)O)[C@H](C)CC)[C@H](C)O)C(C)C` [D-C(1–21)] (H-[dR][dF]G[dR][dF][dL][dR][dK][dI][dR][dR][dF][dR][dP][dK][dV][dT][dI][dT][dI][dQ]-NH2; N-terminus and C-terminus assumed), for which the MBC is 2.5 to 5 µM in test [1], 0.6 to 5 µM in [2], 2.5 µM (≈ 6.72 µg/mL) in test [3] and 2.5 µM (≈ 6.72 µg/mL) in test [4]. Further, in test [5], the Kd is 10200 nM. The “BMDM differentiation efficiency, percentage of cells expressing F4/80 at day 6” value in the test with murine BMDMs was “most pronounced”. For the same molecule, the cumulative clinical score entry was “small reduction of cumulative clinical score” in the test with S. suis P1/7 (1 mg/kg s.c., infected 24 h post peptide injection, late stage of disease) and “reduction in cumulative clinical score” with S. suis P1/7 (1 mg/kg s.c., infected 7 days post peptide injection, acute phase of disease). Further, the survival entry in the test on S. suis P1/7 (1 mg/kg s.c., infected either 24 h or 7 days post peptide injection) is listed as “higher chance of survival”. In the test with S. suis P1/7 (1 mg/kg s.c., infected i.p. with 10^7 CFU 24 h or 7 d post peptide injection, same in control mice), the “bodyweight loss up to 48 h post infection” value was “approximately 8%”. Also, in the test on S. suis P1/7 (24 h D-C(1–21) treated mice), the “bacteria in the blood 7 days post infection” value is given as “no mice had bacteria left in the bloodstream”. The “number of S. suis positive organs per mouse” value in the test on S. suis P1/7 (24 h D-C(1–21) treated mice versus untreated, not statistically significant) is given as “generally less S. suis positive organs”. In addition, in the test with S. suis P1/7 (24 h D-C(1–21) treated mice versus untreated, not statistically significant, not found for 7 day treated mice), the “total CFU counts in organs” value was “lower total CFU counts”. In the test on S. suis P1/7 (all mice, treated or not), the “S. suis bacteria in the bloodstream 24 h post infection” value was 10^5-10^6 CFU/mL. Moreover, the “bacterial counts in organs of mice reaching the HEP” value in the test with S. suis P1/7 (treated mice reaching HEP before the end of the study, especially in the brain) is “less bacterial counts”.

`CC[C@@H](C)[C@@H](NC(=O)[C@@H](CCCCN)NC(=O)[C@@H](CCCNC(=N)N)NC(=O)[C@@H](CC(C)C)NC(=O)[C@@H](Cc1ccccc1)NC(=O)[C@H](N)CCCNC(=N)N)C(=O)N[C@H](CCCNC(=N)N)C(=O)N[C@H](CCCNC(=N)N)C(=O)N[C@H](Cc1ccccc1)C(=O)N[C@H](CCCNC(=N)N)C(=O)N1CCC[C@@H]1C(=O)N[C@H](CCCCN)C(=O)N[C@@H](C(=O)N[C@@H](C(=O)N[C@@H](C(=O)N[C@@H](C(=O)N[C@@H](C(=O)N[C@H](CCC(N)=O)C(N)=O)[C@H](C)CC)[C@H](C)O)[C@H](C)CC)[C@H](C)O)C(C)C` [D-C(4–21)] (H-[dR][dF][dL][dR][dK][dI][dR][dR][dF][dR][dP][dK][dV][dT][dI][dT][dI][dQ]-NH2; N-terminus and C-terminus assumed): the MBC is 2.5 to 5 µM in test [1], 1.25 to 2.5 µM in test [2], 5 to 10 µM in [3] and 2.5 µM (≈ 5.82 µg/mL) in test [4]. Also, the Kd in [5] came out at 2120 nM.

Consider `CC[C@@H](C)[C@@H](NC(=O)[C@@H](CCCCN)NC(=O)[C@@H](CCCNC(=N)N)NC(=O)[C@@H](CC(C)C)NC(=O)[C@@H](Cc1ccccc1)NC(=O)[C@@H](CCCNC(=N)N)NC(=O)CNC(=O)[C@@H](Cc1ccccc1)NC(=O)[C@H](N)CCCNC(=N)N)C(=O)N[C@H](CCCNC(=N)N)C(=O)N[C@H](CCCNC(=N)N)C(=O)N[C@H](Cc1ccccc1)C(=O)N[C@H](CCCNC(=N)N)C(=O)N1CCC[C@@H]1C(=O)N[C@H](CCCCN)C(=O)N[C@@H](C(=O)N[C@@H](C(=O)N[C@@H](C(=O)N[C@@H](C(=O)N[C@@H](C(=O)N[C@H](CCC(N)=O)C(=O)NCC(=O)N[C@H](CO)C(=O)N[C@H](C)C(=O)N[C@H](CCCNC(=N)N)C(=O)N[C@H](Cc1ccccc1)C(N)=O)[C@H](C)CC)[C@H](C)O)[C@H](C)CC)[C@H](C)O)C(C)C` [D-CATH-2] (H-[dR][dF]G[dR][dF][dL][dR][dK][dI][dR][dR][dF][dR][dP][dK][dV][dT][dI][dT][dI][dQ]G[dS][dA][dR][dF]-NH2; N-terminus assumed), for which the MBC in test [1] fell in the range of 2.5 to 5 µM; in test [2], 1.25 to 5 µM; in test [3], 2.5 to 5 µM; in test [4] it was 1.25 to 2.5 µM. The Kd in [5] was 3040 nM. Besides, the “protection of chickens against infection” value with E. coli was “protects chickens up to 7 days post hatch”.

As for “L-CATH-2: natural chicken cathelicidin-2 (RFGRFLRKIRRFRPKVTITIQGSARF-NH2)”, the Kd in test [6] is 80 nM.
